Test results published in PubChem BioAssay (NCI).
Where “and” joins values, the source holds several entries; their conditions need not be identical. Equal values may be shown once.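 The compound was tested at five concentrations on cells cultured in 96-well plates, with a 48-hour exposure period. The concentration for 50% growth inhibition is given as GI50. TGI denotes the concentration required for complete inhibition of growth.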

Columns and labels:
Test in all cases: NCI-60 cell line screen, 48 h
SNB-75 CNS = test system: SNB-75 CNS
SK-MEL-5 melanoma = test system: SK-MEL-5 melanoma
HL-60(TB) leukemia = test system: HL-60(TB) leukemia
XF 498 CNS = test system: XF 498 CNS
SK-MEL-2 melanoma = test system: SK-MEL-2 melanoma
UACC-62 melanoma = test system: UACC-62 melanoma
NCI/ADR-RES ovarian = test system: NCI/ADR-RES ovarian
EKVX NSCLC = test system: EKVX NSCLC
UACC-257 melanoma = test system: UACC-257 melanoma
KM20L2 colon = test system: KM20L2 colon

OC(CBr)C(O)C(O)C(O)CBr (stereo not given)
GI50 (SNB-75 CNS): 13 µM and 51 µM
TGI (SNB-75 CNS): 68.4 µM and > 100 µM
GI50 (SK-MEL-5 melanoma): > 100 µM
TGI (SK-MEL-5 melanoma): > 100 µM
TGI (HL-60(TB) leukemia): > 67.5 µM
TGI (XF 498 CNS): > 100 µM
TGI (SK-MEL-2 melanoma): > 100 µM
GI50 (UACC-62 melanoma): 19.9 µM and 9.75 µM
TGI (UACC-62 melanoma): > 75.4 µM and 65.1 µM
GI50 (NCI/ADR-RES ovarian): > 100 µM
TGI (NCI/ADR-RES ovarian): > 100 µM
TGI (EKVX NSCLC): > 100 µM
TGI (UACC-257 melanoma): > 100 µM
TGI (KM20L2 colon): > 100 µM

S=C1NC(c2ccccc2)NC(c2ccccc2)S1 (stereo not given)
TGI (SNB-75 CNS): > 100 µM
TGI (SK-MEL-5 melanoma): > 100 µM
TGI (HL-60(TB) leukemia): > 100 µM
TGI (SK-MEL-2 melanoma): > 100 µM
TGI (UACC-62 melanoma): > 100 µM
TGI (NCI/ADR-RES ovarian): > 100 µM
TGI (EKVX NSCLC): > 100 µM
TGI (UACC-257 melanoma): > 100 µM

C=C1CC2(CC(c3ccccc3C)OC(c3ccccc3C)C2)OC1=O (stereo not given)
TGI (SNB-75 CNS): 11.6 µM
TGI (SK-MEL-5 melanoma): 3.97 µM
TGI (HL-60(TB) leukemia): 11.6 µM
TGI (SK-MEL-2 melanoma): 4.13 µM
TGI (UACC-62 melanoma): 3.23 µM
TGI (NCI/ADR-RES ovarian): 14.3 µM
TGI (EKVX NSCLC): 30.1 µM
TGI (UACC-257 melanoma): 3.66 µM

CN1C(=O)CC(CC(=O)C2CCCCC2=O)CC1=O (stereo not given)
TGI (SNB-75 CNS): > 100 µM
TGI (HL-60(TB) leukemia): > 100 µM
TGI (XF 498 CNS): > 100 µM
TGI (UACC-62 melanoma): > 100 µM
TGI (EKVX NSCLC): > 100 µM
TGI (UACC-257 melanoma): > 100 µM
TGI (KM20L2 colon): > 100 µM

CN1c2cccc[c]2[Sn]([CH3])([CH3])[c]2ccccc21
GI50 (SNB-75 CNS): < 0.0142 µM
TGI (SNB-75 CNS): 0.192 µM
GI50 (SK-MEL-5 melanoma): < 0.01 µM
TGI (SK-MEL-5 melanoma): 0.023 µM
GI50 (HL-60(TB) leukemia): < 0.01 µM
TGI (HL-60(TB) leukemia): 0.0569 µM
GI50 (SK-MEL-2 melanoma): < 0.0209 µM
TGI (SK-MEL-2 melanoma): 0.18 µM
GI50 (UACC-62 melanoma): < 0.0147 µM
TGI (UACC-62 melanoma): 0.113 µM
GI50 (NCI/ADR-RES ovarian): 0.0132 µM
TGI (NCI/ADR-RES ovarian): 0.0491 µM
GI50 (EKVX NSCLC): < 0.01 µM
TGI (EKVX NSCLC): < 0.0249 µM
GI50 (UACC-257 melanoma): < 0.01 µM
TGI (UACC-257 melanoma): < 0.0217 µM

CC(=O)Nc1ccc2c(c1)[nH]c(=O)c1cc(NC(C)=O)ccc12
GI50 (SNB-75 CNS): 41.2 µM
TGI (SNB-75 CNS): > 100 µM
GI50 (SK-MEL-5 melanoma): > 100 µM
TGI (SK-MEL-5 melanoma): > 100 µM
GI50 (HL-60(TB) leukemia): 26.6 µM
TGI (HL-60(TB) leukemia): > 100 µM
GI50 (SK-MEL-2 melanoma): > 100 µM
TGI (SK-MEL-2 melanoma): > 100 µM
GI50 (UACC-62 melanoma): > 100 µM
TGI (UACC-62 melanoma): > 100 µM
GI50 (NCI/ADR-RES ovarian): > 100 µM
TGI (NCI/ADR-RES ovarian): > 100 µM
GI50 (EKVX NSCLC): > 100 µM
TGI (EKVX NSCLC): > 100 µM
GI50 (UACC-257 melanoma): > 100 µM
TGI (UACC-257 melanoma): > 100 µM

CCN(CC(O)COc1ccc2c(c1)[n+]([O-])nc(N)[n+]2[O-])C(C)=O (stereo not given)
TGI (SNB-75 CNS): > 100 µM
TGI (SK-MEL-5 melanoma): > 100 µM
TGI (HL-60(TB) leukemia): > 100 µM
TGI (SK-MEL-2 melanoma): > 100 µM
TGI (UACC-62 melanoma): > 100 µM
TGI (NCI/ADR-RES ovarian): > 100 µM
TGI (EKVX NSCLC): > 100 µM
TGI (UACC-257 melanoma): > 100 µM

O=C(Nc1n[nH]c2cc(-c3ccc(F)cc3)ccc12)C1CC1
GI50 (SNB-75 CNS): 11.1 µM
TGI (SNB-75 CNS): > 25 µM
GI50 (SK-MEL-5 melanoma): 5.56 µM
TGI (SK-MEL-5 melanoma): > 18.1 µM
GI50 (HL-60(TB) leukemia): 6.69 µM
TGI (HL-60(TB) leukemia): 22.3 µM
GI50 (SK-MEL-2 melanoma): 7.16 µM
TGI (SK-MEL-2 melanoma): > 21.9 µM
GI50 (UACC-62 melanoma): 12.6 µM
TGI (UACC-62 melanoma): > 25 µM
GI50 (NCI/ADR-RES ovarian): 5.27 µM
TGI (NCI/ADR-RES ovarian): 22.6 µM
GI50 (EKVX NSCLC): 12.2 µM
TGI (EKVX NSCLC): > 25 µM
GI50 (UACC-257 melanoma): 14.1 µM
TGI (UACC-257 melanoma): > 25 µM

COc1cc(/C=C/[N+](=O)[O-])cc(OC)c1
GI50 (SNB-75 CNS): 3.82 µM
TGI (SNB-75 CNS): 16.7 µM
GI50 (SK-MEL-5 melanoma): 1.97 µM
TGI (SK-MEL-5 melanoma): 4.03 µM
GI50 (HL-60(TB) leukemia): 2.22 µM
TGI (HL-60(TB) leukemia): 5.68 µM
GI50 (SK-MEL-2 melanoma): 2.1 µM
TGI (SK-MEL-2 melanoma): 4.76 µM
GI50 (UACC-62 melanoma): 2.42 µM
TGI (UACC-62 melanoma): 7.34 µM
GI50 (NCI/ADR-RES ovarian): 3.02 µM
TGI (NCI/ADR-RES ovarian): 13.6 µM
GI50 (EKVX NSCLC): 4.05 µM
TGI (EKVX NSCLC): 27.1 µM
GI50 (UACC-257 melanoma): 2.48 µM
TGI (UACC-257 melanoma): 7.57 µM

CCCCCCCC(=O)[O-].N.N.N.N.N.[Co+3].[O-][Cl+3]([O-])([O-])[O-]
GI50 (SNB-75 CNS): > 100 µM
TGI (SNB-75 CNS): > 100 µM
GI50 (SK-MEL-5 melanoma): > 100 µM
TGI (SK-MEL-5 melanoma): > 100 µM
GI50 (HL-60(TB) leukemia): > 100 µM
TGI (HL-60(TB) leukemia): > 100 µM
GI50 (SK-MEL-2 melanoma): > 100 µM
TGI (SK-MEL-2 melanoma): > 100 µM
GI50 (UACC-62 melanoma): > 100 µM
TGI (UACC-62 melanoma): > 100 µM
GI50 (EKVX NSCLC): > 100 µM
TGI (EKVX NSCLC): > 100 µM
GI50 (UACC-257 melanoma): > 100 µM
TGI (UACC-257 melanoma): > 100 µM
GI50 (KM20L2 colon): > 100 µM
TGI (KM20L2 colon): > 100 µM

O=C1NC(=O)/C(=C/c2ccc3nccc(-c4ccncc4)c3c2)S1
GI50 (SNB-75 CNS): 0.0518 µM
TGI (SNB-75 CNS): 0.448 µM
GI50 (SK-MEL-5 melanoma): 0.419 µM
TGI (SK-MEL-5 melanoma): 1.63 µM
GI50 (HL-60(TB) leukemia): 0.325 µM
TGI (HL-60(TB) leukemia): > 6.77 µM
GI50 (SK-MEL-2 melanoma): 0.438 µM
TGI (SK-MEL-2 melanoma): 2.25 µM
GI50 (UACC-62 melanoma): 0.187 µM
TGI (UACC-62 melanoma): 1.3 µM
GI50 (NCI/ADR-RES ovarian): 0.885 µM
TGI (NCI/ADR-RES ovarian): > 10 µM
GI50 (EKVX NSCLC): 0.407 µM
TGI (EKVX NSCLC): 3.67 µM
GI50 (UACC-257 melanoma): 0.528 µM
TGI (UACC-257 melanoma): 5.22 µM

COC(=O)C1(N2CCOCC2)CCC([C@@H](c2ccccc2)C(C)[N+](=O)[O-])C1 (stereo not given in full)
TGI (SNB-75 CNS): > 100 µM
TGI (SK-MEL-5 melanoma): > 100 µM
TGI (HL-60(TB) leukemia): > 100 µM
TGI (SK-MEL-2 melanoma): > 100 µM
TGI (UACC-62 melanoma): > 100 µM
TGI (NCI/ADR-RES ovarian): > 100 µM
TGI (EKVX NSCLC): > 100 µM
TGI (UACC-257 melanoma): 86.9 µM

O=[N+]([O-])c1ccc(NC(c2ccccc2)c2ccc3cccnc3c2O)cc1 (stereo not given)
GI50 (SNB-75 CNS): 1.63 µM
TGI (SNB-75 CNS): > 100 µM
GI50 (SK-MEL-5 melanoma): 0.4 µM
TGI (SK-MEL-5 melanoma): 3.12 µM
GI50 (HL-60(TB) leukemia): 0.334 µM
TGI (HL-60(TB) leukemia): 1.47 µM
GI50 (SK-MEL-2 melanoma): 0.943 µM
TGI (SK-MEL-2 melanoma): > 100 µM
GI50 (UACC-62 melanoma): 0.51 µM
TGI (UACC-62 melanoma): > 100 µM
GI50 (NCI/ADR-RES ovarian): 0.288 µM
TGI (NCI/ADR-RES ovarian): > 23.4 µM
GI50 (EKVX NSCLC): 0.393 µM
TGI (EKVX NSCLC): > 100 µM
GI50 (UACC-257 melanoma): 0.548 µM
TGI (UACC-257 melanoma): 6.67 µM

O=S(=O)(O)c1ccc([Se][Se]c2ccc(S(=O)(=O)O)cc2)cc1
TGI (SNB-75 CNS): > 100 µM
TGI (SK-MEL-5 melanoma): > 100 µM
TGI (HL-60(TB) leukemia): > 100 µM
TGI (XF 498 CNS): > 100 µM
TGI (SK-MEL-2 melanoma): > 100 µM
TGI (UACC-62 melanoma): > 100 µM
TGI (EKVX NSCLC): > 100 µM
TGI (UACC-257 melanoma): > 100 µM
TGI (KM20L2 colon): > 100 µM

COc1cc2cc(C(=O)Nc3ccccc3)c(N)nc2cc1OC
GI50 (SNB-75 CNS): 29.2 µM
TGI (SNB-75 CNS): > 100 µM
GI50 (SK-MEL-5 melanoma): 22.8 µM
TGI (SK-MEL-5 melanoma): 88.8 µM
GI50 (HL-60(TB) leukemia): 43.6 µM
TGI (HL-60(TB) leukemia): > 100 µM
GI50 (SK-MEL-2 melanoma): 69.1 µM
TGI (SK-MEL-2 melanoma): > 100 µM
GI50 (UACC-62 melanoma): 28.6 µM
TGI (UACC-62 melanoma): > 100 µM
GI50 (NCI/ADR-RES ovarian): 28.4 µM
TGI (NCI/ADR-RES ovarian): > 100 µM
GI50 (EKVX NSCLC): 73.6 µM
TGI (EKVX NSCLC): > 100 µM
GI50 (UACC-257 melanoma): 39.4 µM
TGI (UACC-257 melanoma): > 100 µM
